From PMC10914734 (Signal Transduction and Targeted Therapy, 2024)
Read-outs that look alike come from different tables or passages of the source.

Key:
B.1.617.2 (Delta) = experiment: microbe, parasite or virus in culture; format: cell-based; conditions: Severe acute respiratory syndrome coronavirus 2, Vero C1008, read-out: EC50, SARS-CoV-2 B.1.617.2 (Delta)
Human CTSC = Human CTSC (Homo sapiens, UniProt P53634); experiment: biochemical
SARS-CoV-2 PsV = format: cell-based; conditions: 500 nM
Human CTSG = Human CTSG (Homo sapiens, UniProt P08311); experiment: Protease panel, CTSG inhibition; format: biochemical; conditions: at a concentration of 20 μM; read-out: Inhibition rate, Human CTSG
C57BL/6 mice = experiment: In vivo acute toxicity study in mice; conditions: oral, 1000 mg/kg/day and 2000 mg/kg/day; for Acute toxicity study, organs and tissues damage: at the end of observation; for Acute toxicity study, overall result: twice daily, observed 12 days
Description: C57BL/6 mice (aged 6–8 weeks, 16–25 g) consisting of half male and half female were used to assess toxicity of compounds 14a and 14b in vivo. Compounds, vehicle, dosage, and administration schemes are shown in Supplementary Table S6. In short, mice were treated with compounds 14a and 14b at the indicated doses by oral gavage and the mice were clinically observed for 12 days after administration, including body weights, food consumption, and general status. At the end of the studies, the mice were anesthetized by Zoletil 50, and the organ and tissue samples were observed by naked eyes.

SARS-CoV-2 = experiment: Authentic virus inhibition assay, SARS-CoV-2 wild-type strain in Vero-E6 cells; format: cell-based; conditions: Severe acute respiratory syndrome coronavirus 2, Vero C1008
Pharmacokinetics in rats = format: in vivo; conditions: for AUC(0-t) / Cmax / Tmax / bioavailability / half-life / AUC(0-inf) / MRT inf / clearance: male, SD, rat, plasma; for AUC(0-inf): read-out: AUCINF_obs; for MRT inf: read-out: MRTINF_obs
HCoV-OC43 = experiment: Protective effect against HCoV-OC43 infection in newborn mice; format: in vivo
Description: We also further assessed the in vivo antiviral activity of compound 14b against HCoV-OC43 infection in a mouse model. In the HCoV-OC43 infection mouse model, we treated newborn mice with 14b at a dose of 5 mg/kg by intraperitoneal injection 24 h after challenge with HCoV-OC43 at 100 TCID50.
Protective effect of 14b against HCoV-OC43 in vivo was assessed as previously reported.[45] All newborn mice were challenged with HCoV-OC43 (100 TCID50) by intranasal administration. For mice in the 14b-treated group, 14b (5 mg/kg) in a proper solution (1% dimethyl sulfoxide, 9% polyethylene glycol 300, and 90% aqueous solution containing 28% (w/v) hydroxypropyl β-cyclodextrin, volume ratio) was given by intraperitoneal injection. Mice in the viral control group were treated with PBS. Body weight and survival rate of these mice were then observed up to the 15th day post-infection.

Sequence of Human CTSC (P53634 25-463): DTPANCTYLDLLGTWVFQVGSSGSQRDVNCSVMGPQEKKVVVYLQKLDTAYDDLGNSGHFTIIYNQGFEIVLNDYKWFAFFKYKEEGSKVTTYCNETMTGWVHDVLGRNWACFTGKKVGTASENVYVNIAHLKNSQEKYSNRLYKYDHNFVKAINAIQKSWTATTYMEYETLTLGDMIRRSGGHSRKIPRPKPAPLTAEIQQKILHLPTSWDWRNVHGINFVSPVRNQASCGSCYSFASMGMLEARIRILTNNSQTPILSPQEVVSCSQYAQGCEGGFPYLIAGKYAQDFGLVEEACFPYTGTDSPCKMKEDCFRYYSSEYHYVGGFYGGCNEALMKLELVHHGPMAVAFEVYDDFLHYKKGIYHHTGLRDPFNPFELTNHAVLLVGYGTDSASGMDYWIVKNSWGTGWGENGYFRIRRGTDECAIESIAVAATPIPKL
Sequence of Human CTSG (P08311 21-255): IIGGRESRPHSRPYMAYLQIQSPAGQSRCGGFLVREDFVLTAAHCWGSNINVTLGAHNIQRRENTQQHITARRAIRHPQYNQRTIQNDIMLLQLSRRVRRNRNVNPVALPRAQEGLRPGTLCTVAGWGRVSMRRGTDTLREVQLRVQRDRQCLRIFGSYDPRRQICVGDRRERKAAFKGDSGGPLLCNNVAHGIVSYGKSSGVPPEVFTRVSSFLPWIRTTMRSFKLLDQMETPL

Row | SMILES | EC50 (B.1.617.2 (Delta)) | Antiviral activity by time of addition (SARS-CoV-2 PsV) | inhibition (Human CTSG) | Acute toxicity study, abnormalities in body weights, food mean daily consumption and general status (C57BL/6 mice) | Acute toxicity study, mortality (C57BL/6 mice) | Acute toxicity study, organs and tissues damage (C57BL/6 mice) | Acute toxicity study, overall result (C57BL/6 mice) | EC50 (SARS-CoV-2) | Vss_obs (Pharmacokinetics in rats; i.v. (5 mg/kg)) | AUC(0-t) (Pharmacokinetics in rats; ip, i.p. (5 mg/kg)) | Cmax (Pharmacokinetics in rats; ip, i.p. (5 mg/kg)) | Tmax (Pharmacokinetics in rats; ip, i.p. (5 mg/kg)) | bioavailability (Pharmacokinetics in rats; ip, i.p. (5 mg/kg)) | half-life (Pharmacokinetics in rats; ip, i.p. (5 mg/kg)) | AUC(0-inf) (Pharmacokinetics in rats; ip, i.p. (5 mg/kg)) | MRT inf (Pharmacokinetics in rats; ip, i.p. (5 mg/kg)) | AUC(0-t) (Pharmacokinetics in rats; iv, i.v. (5 mg/kg)) | clearance (Pharmacokinetics in rats; iv, i.v. (5 mg/kg)) | half-life (Pharmacokinetics in rats; iv, i.v. (5 mg/kg)) | AUC(0-inf) (Pharmacokinetics in rats; iv, i.v. (5 mg/kg)) | also measured
1 | O=C(NCc1ccccc1)C(=O)[C@H](C[C@@H]1CCCNC1=O)NC(=O)[C@H](Cc1ccc(F)cc1)NC(=O)c1cc2ccccc2o1 [14a, N-((S)-1-(((S)-4-(benzylamino)-3,4-dioxo-1-((S)-2-oxopiperidin-3-yl)butan-2-yl)amino)-3-(4-fluorophenyl)-1-oxopropan-2-yl)benzofuran-2-carboxamide] | 0.011 ± 0.0018 µM | lost most of their antiviral activity | 20 ± 3% | No abnormalities | No mice died | No obvious organs and tissues damage | No obvious toxicity | 0.0517 ± 0.0108 µM | 1.3 ± 0.15 L/kg | 4.75 µg·h/mL | 2.08 µg/mL | 0.25 h | 115% | 4.14 h | 4.76 µg·h/mL | 1.9 h | 4.11 ± 0.756 µg·h/mL | 1.24 ± 0.204 L/h/kg | 6 ± 0.75 h | 4.13 ± 0.756 µg·h/mL | IC50 (Human CTSC): 0.181 ± 0.0304 µM; MRT inf (Pharmacokinetics in rats; iv, i.v. (5 mg/kg)): 1.08 ± 0.07 h; AUC(0-t) (Pharmacokinetics in rats; po, p.o. (10 mg/kg)): 1.05 ± 0.276 µg·h/mL; Cmax (Pharmacokinetics in rats; po, p.o. (10 mg/kg)): 0.416 µg/mL; Tmax (Pharmacokinetics in rats; po, p.o. (10 mg/kg)): 0.75 ± 0.84 h; bioavailability (Pharmacokinetics in rats; po, p.o. (10 mg/kg)): 13%; half-life (Pharmacokinetics in rats; po, p.o. (10 mg/kg)): 2.52 h; AUC(0-inf) (Pharmacokinetics in rats; po, p.o. (10 mg/kg)): 1.06 µg·h/mL; MRT inf (Pharmacokinetics in rats; po, p.o. (10 mg/kg)): 2.06 ± 0.49 h
2 | O=C(NCc1ccccc1)C(=O)[C@H](C[C@@H]1CCCNC1=O)NC(=O)[C@H](CC1CCCCC1)NC(=O)c1cc2ccccc2o1 [14b, N-((S)-1-(((S)-4-(benzylamino)-3,4-dioxo-1-((S)-2-oxopiperidin-3-yl)butan-2-yl)amino)-3-cyclohexyl-1-oxopropan-2-yl)benzofuran-2-carboxamide] | 0.0286 ± 0.00379 µM | lost most of their antiviral activity | 4 ± 4% | No abnormalities | No mice died | No obvious organs and tissues damage | No obvious toxicity | < 0.04 µM | 2.28 ± 0.184 L/kg | 9.3 ± 0.994 µg·h/mL | 1.63 ± 0.099 µg/mL | 0.25 h | 249% | 8.24 ± 1.72 h | 10.6 ± 0.557 µg·h/mL | 10.6 ± 1.8 h | 4.22 ± 0.189 µg·h/mL | 1.18 ± 0.054 L/h/kg | 5.11 ± 0.1 h | 4.25 ± 0.188 µg·h/mL | IC50 (Human CTSC; read-out: IC50, Human CTSC): 0.0662 ± 0.00785 µM; MRT inf (Pharmacokinetics in rats; iv, i.v. (5 mg/kg)): 1.94 ± 0.12 h; AUC(0-t) (Pharmacokinetics in rats; po, p.o. (10 mg/kg)): 2.62 ± 0.25 µg·h/mL; Cmax (Pharmacokinetics in rats; po, p.o. (10 mg/kg)): 0.982 µg/mL; Tmax (Pharmacokinetics in rats; po, p.o. (10 mg/kg)): 0.33 ± 0.14 h; bioavailability (Pharmacokinetics in rats; po, p.o. (10 mg/kg)): 32%; half-life (Pharmacokinetics in rats; po, p.o. (10 mg/kg)): 3.86 h; AUC(0-inf) (Pharmacokinetics in rats; po, p.o. (10 mg/kg)): 2.68 µg·h/mL; MRT inf (Pharmacokinetics in rats; po, p.o. (10 mg/kg)): 3.95 ± 1.27 h; Body weight of infected mice (HCoV-OC43; HCoV-OC43 100 TCID50, 5 mg/kg intraperitoneal injection): either mildly decreased or rapidly recovered; Final survival rate (HCoV-OC43; HCoV-OC43 100 TCID50, 5 mg/kg intraperitoneal injection 24 h after challenge): 60%
